Results taken from publication PMC3402085 (ACS medicinal chemistry letters, 2012).

What was measured:
[1] = tested on: PC-12 cells expressing mutant G93A SOD1; assay: Mutant SOD1-induced cytotoxicity protection assay; assay type: cell-based; conditions: result in words
primary cortical neurons = assay: Primary cortical neuron protection assay; assay type: cell-based; conditions: result in words
[2] = tested on: PC-12 cells expressing mutant G93A SOD1; conditions: result in words; previously prepared compound; cited from earlier work

Row | Structure (SMILES) | protection against mutant SOD1 induced toxicity in PC-12 cells [1] | activity in cortical neurons (primary cortical neurons) | inhibition of protein aggregation in PC-12 cells expressing mutant G93A SOD1 [2]
1 | C[C@H](Oc1cc(C(F)(F)F)cc(C(F)(F)F)c1)C1CC(=O)CC(=O)C1 [1b] | protective | active | 
2 | O=C1CC(=O)CC([C@@H]2C[C@H]2c2cc(C(F)(F)F)cc(C(F)(F)F)c2)C1 [2b] | protective | active | 
3 | O=C1CC(=O)CC(c2cc(C(F)(F)F)cc(C(F)(F)F)c2)C1 [compound 13] |  |  | potent inhibitor
